{
  "source": "paper PMC8161735",
  "about": "(Toxicology, 2021)",
  "target": "human ether-a-go-go-related gene (hERG) potassium channel (Homo sapiens, UniProt Q12809)",
  "sequence (Q12809 whole entry)": "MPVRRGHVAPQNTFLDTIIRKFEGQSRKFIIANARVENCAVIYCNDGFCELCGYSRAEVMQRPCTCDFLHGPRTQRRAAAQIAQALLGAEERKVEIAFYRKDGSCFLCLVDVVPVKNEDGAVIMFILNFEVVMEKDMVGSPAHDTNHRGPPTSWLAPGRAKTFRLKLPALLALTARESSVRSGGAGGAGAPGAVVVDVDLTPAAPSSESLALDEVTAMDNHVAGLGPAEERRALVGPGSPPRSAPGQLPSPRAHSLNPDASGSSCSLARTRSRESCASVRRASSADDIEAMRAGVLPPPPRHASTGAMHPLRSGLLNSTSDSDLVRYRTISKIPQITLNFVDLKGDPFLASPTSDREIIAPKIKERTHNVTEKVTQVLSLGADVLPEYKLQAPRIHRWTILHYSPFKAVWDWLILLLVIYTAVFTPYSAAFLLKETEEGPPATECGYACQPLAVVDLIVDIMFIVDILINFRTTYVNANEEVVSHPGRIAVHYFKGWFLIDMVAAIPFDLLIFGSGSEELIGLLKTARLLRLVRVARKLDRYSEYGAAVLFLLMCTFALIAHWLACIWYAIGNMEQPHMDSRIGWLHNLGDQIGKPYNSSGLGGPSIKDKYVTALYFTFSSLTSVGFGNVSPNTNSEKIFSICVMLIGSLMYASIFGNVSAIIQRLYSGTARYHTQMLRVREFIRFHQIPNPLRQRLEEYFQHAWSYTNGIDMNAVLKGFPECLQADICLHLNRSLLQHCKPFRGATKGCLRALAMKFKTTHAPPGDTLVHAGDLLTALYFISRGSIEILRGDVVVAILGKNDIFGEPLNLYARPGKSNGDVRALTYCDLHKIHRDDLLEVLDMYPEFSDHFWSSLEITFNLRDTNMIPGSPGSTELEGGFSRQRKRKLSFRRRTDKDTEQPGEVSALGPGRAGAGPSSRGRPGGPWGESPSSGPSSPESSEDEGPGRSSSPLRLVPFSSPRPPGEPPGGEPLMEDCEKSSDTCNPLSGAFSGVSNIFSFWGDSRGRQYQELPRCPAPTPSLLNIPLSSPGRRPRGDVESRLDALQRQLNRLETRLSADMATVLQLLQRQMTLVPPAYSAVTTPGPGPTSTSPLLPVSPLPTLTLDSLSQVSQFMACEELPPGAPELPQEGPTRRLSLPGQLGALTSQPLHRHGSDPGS",
  "assay": "whole-cell patch clamp, hERG tail current in hERG-HEK-293 cells",
  "format": "cell-based",
  "data": [
    {"molecule": "CCN(CCO)CCCC(C)Nc1ccnc2cc(Cl)ccc12", "note": "(stereo not shown) [HCQ, Hydroxychloroquine]", "values": [
      {"measurement": "IC50", "value": 8.6, "unit": "µM"}
    ]}
  ]
}
